In patent publication US20200024278A1, “COMPOSITION COMPRISING ANTIBIOTIC COMPOUND AND AN HETEROCYCLIC COMPOUND AND THEIR USE IN PREVENTING OR TREATING BACTERIAL INFECTIONS” (MUTABILIS, priority 2016, published 2020):

How the values were obtained:
Assay in all cases: MIC, broth microdilution (CLSI), substance alone or ATB combined with compound at 4 or 8 μg/mL
[1] = test system: PAE 105250; assay type: cell-based, P. aeruginosa; details: PAE 105250; for MIC ATB combined with compound: compound @4 μg/ml
Method in brief: (§1)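 Per CLSI-M7-A7, MICs are determined in cation-adjusted Mueller-Hinton broth with a final inoculum of 5·10^5 CFU/mL. Plates incubate 16-20 h at 35° C in air and are read by eye. Fosfomycin assays carry 25 μg/ml glucose-6-phosphate.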

[2] = test system: PAE UFR90; assay type: cell-based, P. aeruginosa; details: PAE UFR90; for MIC ATB combined with compound: compound @4 μg/ml
Method in brief: as §1

[3] = test system: PAE UFR48; assay type: cell-based, P. aeruginosa; details: PAE UFR48; for MIC ATB combined with compound: compound @4 μg/ml
Method in brief: as §1

[4] = test system: ABA UFR159; assay type: cell-based, A. baumannii; details: Acinetobacter baumannii, substance alone, read-out: MIC
Description: (§2) Compounds of the present invention were assessed against genotyped bacterial strains alone or in combination with an antibacterial. In the assays, MICs of said compounds or combination of antibiotics with fixed concentrations of said compounds (4 or 8 μg/mL) were determined by the broth microdilution method according to the Clinical Laboratory Standards Institute (CLSI-M7-A7). Briefly, compounds alone according to the invention were prepared in DMSO and spotted (2 μL each) on sterile polystyrene plates (Corning, 3788). Combinations of compounds and antibiotics dilutions were prepared in DMSO and spotted (1 μL each) on sterile polystyrene plates (Corning, 3788). Log phase bacterial suspensions were adjusted to a final density of 5·10^5 CFU/mL in cation-adjusted Mueller-Hinton broth (ca-MHB; Becton-Dickinson and Company) and added to each well (98 μL). Assays including Fosfomycin were supplemented with 25 μg/ml of Glucose-6-phosphate. Microplates were incubated for 16-20 h at 35° C. in ambient air. The MIC of the compounds was defined as the lowest concentration of said compounds that prevented bacterial growth as read by visual inspection. The MIC of ATB at each compound concentration was defined as the lowest concentration of ATB that prevented bacterial growth as read by visual inspection.

[5] = test system: ABA 19606; assay type: cell-based, A. baumannii; details: Acinetobacter baumannii, substance alone, read-out: MIC
Description: as §2

[6] = test system: SAU 29213; assay type: cell-based, S. aureus; details: for MIC ATB combined with compound: compound @4 μg/ml, SAU 29213
Method in brief: as §1

[7] = test system: ECL P99; assay type: cell-based, E. cloacae; details: Enterobacter cloacae; substance alone; ECL P99; read-out: MIC
Method in brief: as §1

[8] = test system: ECO UFR39; assay type: cell-based, E. coli; details: Escherichia coli; substance alone; ECO UFR39; read-out: MIC
Method in brief: as §1

[9] = test system: ECO 190317; assay type: cell-based, E. coli; details: Escherichia coli; substance alone; ECO 190317; read-out: MIC
Method in brief: as §1

[10] = test system: KPN UFR42; assay type: cell-based, K. pneumoniae; details: Klebsiella pneumoniae; substance alone; KPN UFR42; read-out: MIC
Method in brief: as §1

[11] = test system: KPN BAA-1898; assay type: cell-based, K. pneumoniae; details: Klebsiella pneumoniae, BAA1898; substance alone; KPN BAA-1898; read-out: MIC
Method in brief: as §1

[12] = test system: SPN 49619; assay type: cell-based, S. pneumoniae; details: SPN 49619; for MIC ATB combined with compound: compound @4 μg/ml
Method in brief: as §1

[13] = Pseudomonas aeruginosa, substance alone, read-out: MIC

With NCCON=C1C[C@@H](C(N)=O)N2C[C@@H]1N(OS(=O)(=O)[O-])C2=O.[Na+] [Example 2, sodium and 2,2,2-trifluoroacetate [(2S,5S)-4-(2-ammonium-ethoxyimino)-2-carbamoyl-7-oxo-1,6-diazabicyclo[3.2.1]octan-6-yl] sulfate] as the compound, how does the “MIC ATB combined with compound” value ([1]; ATB ATM) read?
Its value is 8 µg/mL.

And the “MIC ATB combined with compound” value ([1]; ATB FEP)?
Its value is 4 µg/mL.

What about the “MIC ATB combined with compound” value ([1]; ATB FOS) of the same compound?
Its value is >128 µg/mL.

And the “MIC ATB combined with compound” value ([1]; ATB MEM)?
Its value is 2 µg/mL.

What about the “MIC ATB combined with compound” value ([1]; ATB PIP) of the same compound?
Its value is >32 µg/mL.

What about the MIC [1, 13] of the same compound?
Its MIC is > 32 µg/mL.

What about the “MIC ATB combined with compound” value ([2]; ATB ATM) of the same compound?
Its value is 16 µg/mL.

What about the “MIC ATB combined with compound” value ([2]; ATB FEP) of the same compound?
Its value is 8 µg/mL.

And the “MIC ATB combined with compound” value ([2]; ATB FOS)?
The value was 4 µg/mL.

What about the “MIC ATB combined with compound” value ([2]; ATB MEM) of the same compound?
The value was 1 µg/mL.

And the “MIC ATB combined with compound” value ([2]; ATB PIP)?
Its value is >32 µg/mL.

What about the MIC [2, 13] of the same compound?
The MIC was > 128 µg/mL.

What about the “MIC ATB combined with compound” value ([3]; ATB ATM) of the same compound?
The value was 8 µg/mL.

And the “MIC ATB combined with compound” value ([3]; ATB FEP)?
Its value is 32 µg/mL.

And the “MIC ATB combined with compound” value ([3]; ATB FOS)?
Its value is 16 µg/mL.

What about the “MIC ATB combined with compound” value ([3]; ATB MEM) of the same compound?
The value was 4 µg/mL.

And the “MIC ATB combined with compound” value ([3]; ATB PIP)?
The value was 128 µg/mL.

What about the MIC [3, 13] of the same compound?
The MIC was 64 µg/mL.

And the MIC [4]?
The MIC was > 32 µg/mL.

What about the MIC [5] of the same compound?
Its MIC is 16 µg/mL.

What about the “MIC ATB combined with compound” value ([6]; ATB ATM) of the same compound?
Its value is >32 µg/mL.

And the “MIC ATB combined with compound” value ([6]; ATB FEP)?
The value was 4 µg/mL.

And the “MIC ATB combined with compound” value ([6]; ATB FOS)?
The value was 0.5 µg/mL.

And the “MIC ATB combined with compound” value ([6]; ATB MEM)?
The value was 0.125 µg/mL.

And the “MIC ATB combined with compound” value ([6]; ATB PIP)?
The value was 1 µg/mL.

And the MIC ([6]; Staphylococcus aureus, substance alone, SAU 29213 (MSSA 29213), read-out: MIC)?
Its MIC is > 32 µg/mL.

What about the MIC [7] of the same compound?
Its MIC is 16 µg/mL.

And the MIC [8]?
Its MIC is 4 µg/mL.

What about the MIC [9] of the same compound?
Its MIC is 4 µg/mL.

And the MIC [10]?
Its MIC is > 32 µg/mL.

What about the MIC [11] of the same compound?
The MIC was > 32 µg/mL.

And the “MIC ATB combined with compound” value ([12]; ATB ATM)?
Its value is >32 µg/mL.

And the “MIC ATB combined with compound” value ([12]; ATB FEP)?
Its value is 0.063 µg/mL.

What about the “MIC ATB combined with compound” value ([12]; ATB FOS) of the same compound?
Its value is 16 µg/mL.

What about the “MIC ATB combined with compound” value ([12]; ATB MEM) of the same compound?
Its value is 0.063 µg/mL.

What about the “MIC ATB combined with compound” value ([12]; ATB PIP) of the same compound?
Its value is 0.5 µg/mL.

What about the MIC ([12]; Streptococcus pneumoniae, substance alone, read-out: MIC) of the same compound?
The MIC was > 32 µg/mL.
